# Results taken from PubChem BioAssay (NCI).
#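 Each compound was tested at five concentrations against cells in 96-well plates for 48 hours. At the GI50, growth is halved. TGI: concentration producing complete growth inhibition.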
# Assays:
# Experiment in all cases: growth of human tumour cells (NCI), 48 h
# 786-0 renal = tested on: 786-0 renal
# A498 renal = tested on: A498 renal
# A549 NSCLC = tested on: A549 NSCLC
# ACHN renal = tested on: ACHN renal
# BT-549 breast = tested on: BT-549 breast
# CAKI-1 renal = tested on: CAKI-1 renal
# CCRF-CEM leukemia = tested on: CCRF-CEM leukemia
# COLO 205 colon = tested on: COLO 205 colon
# DU-145 prostate = tested on: DU-145 prostate
# HCC-2998 colon = tested on: HCC-2998 colon
# HCT-116 colon = tested on: HCT-116 colon
# HCT-15 colon = tested on: HCT-15 colon
# HL-60(TB) leukemia = tested on: HL-60(TB) leukemia
# HOP-62 NSCLC = tested on: HOP-62 NSCLC
# HOP-92 NSCLC = tested on: HOP-92 NSCLC
# HS 578T breast = tested on: HS 578T breast
# HT29 colon = tested on: HT29 colon
# IGROV1 ovarian = tested on: IGROV1 ovarian
# K-562 leukemia = tested on: K-562 leukemia
# KM12 colon = tested on: KM12 colon
# LOX IMVI melanoma = tested on: LOX IMVI melanoma
# M14 melanoma = tested on: M14 melanoma
# MALME-3M melanoma = tested on: MALME-3M melanoma
# MCF7 breast = tested on: MCF7 breast
# MDA-MB-231 breast = tested on: MDA-MB-231 breast
# MDA-MB-435 = tested on: MDA-MB-435
# MOLT-4 leukemia = tested on: MOLT-4 leukemia
# NCI-H226 lung = tested on: NCI-H226 lung
# NCI-H23 lung = tested on: NCI-H23 lung
# NCI-H460 lung = tested on: NCI-H460 lung
# NCI-H522 lung = tested on: NCI-H522 lung
# NCI/ADR-RES ovarian = tested on: NCI/ADR-RES ovarian
# OVCAR-3 ovarian = tested on: OVCAR-3 ovarian
# OVCAR-4 ovarian = tested on: OVCAR-4 ovarian
# OVCAR-5 ovarian = tested on: OVCAR-5 ovarian
# OVCAR-8 ovarian = tested on: OVCAR-8 ovarian
# PC-3 prostate = tested on: PC-3 prostate
# RPMI-8226 leukemia = tested on: RPMI-8226 leukemia
# RXF 393 renal = tested on: RXF 393 renal
# SF-268 CNS = tested on: SF-268 CNS
# SF-539 CNS = tested on: SF-539 CNS
# SK-MEL-2 melanoma = tested on: SK-MEL-2 melanoma
# SK-MEL-28 melanoma = tested on: SK-MEL-28 melanoma
# SK-MEL-5 melanoma = tested on: SK-MEL-5 melanoma
# SK-OV-3 ovarian = tested on: SK-OV-3 ovarian
# SN12C renal = tested on: SN12C renal
# SNB-19 CNS = tested on: SNB-19 CNS
# SNB-75 CNS = tested on: SNB-75 CNS
# SR leukemia = tested on: SR leukemia
# SW-620 colon = tested on: SW-620 colon
# T-47D breast = tested on: T-47D breast
# TK-10 renal = tested on: TK-10 renal
# U251 CNS = tested on: U251 CNS
# UACC-257 melanoma = tested on: UACC-257 melanoma
# UACC-62 melanoma = tested on: UACC-62 melanoma
# UO-31 renal = tested on: UO-31 renal
smiles,measurement,setting,value
CCOC(=O)N1C/C(=C/c2ccc(F)cc2)C(=O)/C(=C/c2ccc(F)cc2)C1,GI50,786-0 renal,1690 nM
same,TGI,786-0 renal,3620 nM
same,GI50,A498 renal,2160 nM
same,TGI,A498 renal,5120 nM
same,GI50,A549 NSCLC,2640 nM
same,TGI,A549 NSCLC,8650 nM
same,GI50,ACHN renal,1860 nM
same,TGI,ACHN renal,3420 nM
same,GI50,BT-549 breast,1650 nM
same,TGI,BT-549 breast,3090 nM
same,GI50,CAKI-1 renal,3010 nM
same,TGI,CAKI-1 renal,12100 nM
same,GI50,CCRF-CEM leukemia,758 nM
same,TGI,CCRF-CEM leukemia,5640 nM
same,GI50,COLO 205 colon,1920 nM
same,TGI,COLO 205 colon,3540 nM
same,GI50,DU-145 prostate,3480 nM
same,TGI,DU-145 prostate,10900 nM
same,GI50,HCC-2998 colon,1840 nM
same,TGI,HCC-2998 colon,3290 nM
same,GI50,HCT-116 colon,205 nM
same,TGI,HCT-116 colon,397 nM
same,GI50,HCT-15 colon,1160 nM
same,TGI,HCT-15 colon,3020 nM
same,GI50,HL-60(TB) leukemia,3180 nM
same,TGI,HL-60(TB) leukemia,10600 nM
same,GI50,HOP-62 NSCLC,2100 nM
same,TGI,HOP-62 NSCLC,4240 nM
same,GI50,HOP-92 NSCLC,1650 nM
same,TGI,HOP-92 NSCLC,4640 nM
same,GI50,HS 578T breast,3130 nM
same,TGI,HS 578T breast,29000 nM
same,GI50,HT29 colon,363 nM
same,TGI,HT29 colon,1370 nM
same,GI50,IGROV1 ovarian,2390 nM
same,TGI,IGROV1 ovarian,6120 nM
same,GI50,K-562 leukemia,754 nM
same,TGI,K-562 leukemia,> 100000 nM
same,GI50,KM12 colon,641 nM
same,TGI,KM12 colon,2040 nM
same,GI50,LOX IMVI melanoma,327 nM
same,TGI,LOX IMVI melanoma,1100 nM
same,GI50,M14 melanoma,2070 nM
same,TGI,M14 melanoma,4670 nM
same,GI50,MALME-3M melanoma,2340 nM
same,TGI,MALME-3M melanoma,5580 nM
same,GI50,MCF7 breast,327 nM
same,TGI,MCF7 breast,1390 nM
same,GI50,MDA-MB-231 breast,1810 nM
same,TGI,MDA-MB-231 breast,4180 nM
same,GI50,MDA-MB-435,1220 nM
same,TGI,MDA-MB-435,3730 nM
same,GI50,MOLT-4 leukemia,2600 nM
same,TGI,MOLT-4 leukemia,7840 nM
same,GI50,NCI-H226 lung,3520 nM
same,TGI,NCI-H226 lung,19800 nM
same,GI50,NCI-H23 lung,2350 nM
same,TGI,NCI-H23 lung,5670 nM
same,GI50,NCI-H460 lung,1960 nM
same,TGI,NCI-H460 lung,4560 nM
same,GI50,NCI-H522 lung,1950 nM
same,TGI,NCI-H522 lung,3980 nM
same,GI50,NCI/ADR-RES ovarian,3280 nM
same,TGI,NCI/ADR-RES ovarian,21100 nM
same,GI50,OVCAR-3 ovarian,1850 nM
same,TGI,OVCAR-3 ovarian,3470 nM
same,GI50,OVCAR-4 ovarian,2240 nM
same,TGI,OVCAR-4 ovarian,6380 nM
same,GI50,OVCAR-5 ovarian,1890 nM
same,TGI,OVCAR-5 ovarian,3830 nM
same,GI50,OVCAR-8 ovarian,2470 nM
same,TGI,OVCAR-8 ovarian,10800 nM
same,GI50,PC-3 prostate,1850 nM
same,TGI,PC-3 prostate,5460 nM
same,GI50,RPMI-8226 leukemia,201 nM
same,TGI,RPMI-8226 leukemia,772 nM
same,GI50,RXF 393 renal,1630 nM
same,TGI,RXF 393 renal,3110 nM
same,GI50,SF-268 CNS,2200 nM
same,TGI,SF-268 CNS,5520 nM
same,GI50,SF-539 CNS,1760 nM
same,TGI,SF-539 CNS,3300 nM
same,GI50,SK-MEL-2 melanoma,2880 nM
same,TGI,SK-MEL-2 melanoma,6390 nM
same,GI50,SK-MEL-28 melanoma,1800 nM
same,TGI,SK-MEL-28 melanoma,3350 nM
same,GI50,SK-MEL-5 melanoma,1360 nM
same,TGI,SK-MEL-5 melanoma,2670 nM
same,GI50,SK-OV-3 ovarian,2220 nM
same,TGI,SK-OV-3 ovarian,4710 nM
same,GI50,SN12C renal,1590 nM
same,TGI,SN12C renal,3160 nM
same,GI50,SNB-19 CNS,2080 nM
same,TGI,SNB-19 CNS,6310 nM
same,GI50,SNB-75 CNS,2600 nM
same,TGI,SNB-75 CNS,10700 nM
same,GI50,SR leukemia,341 nM
same,TGI,SR leukemia,3610 nM
same,GI50,SW-620 colon,487 nM
same,TGI,SW-620 colon,1740 nM
same,GI50,T-47D breast,2820 nM
same,TGI,T-47D breast,7970 nM
same,GI50,TK-10 renal,2870 nM
same,TGI,TK-10 renal,6990 nM
same,GI50,U251 CNS,1190 nM
same,TGI,U251 CNS,2550 nM
same,GI50,UACC-257 melanoma,2860 nM
same,TGI,UACC-257 melanoma,9650 nM
same,GI50,UACC-62 melanoma,1610 nM
same,TGI,UACC-62 melanoma,3390 nM
same,GI50,UO-31 renal,1530 nM
same,TGI,UO-31 renal,3070 nM
